Measured values taken from patent publication US20110190155A1 (Korea Institute of Science and Technology, priority 2007, published 2011).

Assays:
[1] = in vitro; type: cell-based; conditions: human
Procedure: BEAS-2B (CRL-9609, ATCC, USA), a human bronchial epithelial cell line, was cultured in a T 75 flask containing DMEM (Gibco-BRL, USA) supplemented with 10% FBS at the concentration of 5×10^5 cells/ml. […] The concentration of the vehicle was less than 0.1% in every experiment.
MTT assay with the BEAS-2B cell line was performed according to the method of Mossman et al (J. Immunol. Methods, 65, 55-63, 1983). […] 48 hours later, MTT (3-[4,5-dimethylthiazol-2-yl]-2,5-diphenyltetra zolium bromide) 5 mg/ml was added at the concentration of 5 mg/ml, followed by culture at 37° C. for 3 hours. Then, medium was eliminated and generated formazan crystal was dissolved in 500 μl of DMSO. The solution was aliquoted in a 96 well-plate and OD540 was measured.

[2] = test system: BEAS-2B cells
Procedure: Total RNA was extracted from the cells using trizol reagent (Invitrogen life technologies, USA) according to the manufacturer's instruction and the extracted RNA was purified by using RNeasy mini kit (Qiagen, USA). The genomic DNA was eliminated during the purification of RNA using RNase-free DNase set (Qiagen, USA). The total RNA was quantified by spectrophotometer and purity was measured by Agilent 2100 Bioanalyzer (Agilent Technologies, USA).
30 μg of the total RNA and 2 μg (1 μg/μl) of oligo (dT) primer were mixed, followed by reaction for 10 minutes at 65° C. Then, the reaction mixture was put in ice, followed by annealing.
At this time, the two samples were mixed and purified by Microcon YM-30 column (Millipore, USA).
Hybridization and washing were performed according to the instruction of GeneCneck Co., Ltd. Hybridization was performed in a 62° C. oven for 12 hours. At this time, 44 k whole human genome oligo microarray (Agilent, USA) was used as a DNA microarray chip. […]
Scanning of the hybridized images on the slide was performed by using Genepix 4000B (Axon Instruments, USA). Fluorescence images of the chip washed to eliminate non-binding genes were obtained by laser fluorescence scanner. […] The scanned images were analyzed by GenePix 4.1 software (Axon Instruments, USA) to calculate the gene expression rate.

[3] = cited from earlier work
[4] = patients treated with amiodarone

SMILES: CCCCc1oc2ccccc2c1C(=O)c1cc(I)c(OCCN(CC)CC)c(I)c1 [amiodarone]
- IC20 at 48 h [1]: 29.4 µM
- genes identified to be up-regulated ([2]; 44 genes out of 44,290 genes, Cy5/Cy3 more than 2.0 fold): 0.1%
- genes identified to be down-regulated ([2]; 45 genes out of 44,290 genes, Cy5/Cy3 less than 0.5 fold): 0.10%
- patients exhibiting boredom, fatigue, tremor, walking difficulty and peripheral neuropathy [3, 4]: 20-40%
- patients showing gastrointestinal disorder, nausea, vomiting, constipation and loss of appetite [3, 4]: Approximately 25%
- patients treated with amiodarone exhibiting side effects ([3]; patients): approximately 50%
